We go through 21 compounds from patent publication US20240316038A1, “APOL1 INHIBITORS AND METHODS OF USE” (Maze Therapeutics, Inc., priority 2021, published 2024).

Bounds are passed on as bounds.

By EC50 is commonly meant the concentration at which the effect is half-maximal. As usually defined, the AC50 is the midpoint of the concentration-response curve, whichever way the signal moves.

For experiment [1], the target named is T1, APOL1 G2 (Homo sapiens, UniProt O14791, DEL388-389).
T1 construct: expressed in transfected cells; host or cells: HEK293 T-REx clonal lines: HEK T-REx/GCaMP6f/APOL1 G2 K6.3 in A1, HEK293/T-REx APOL1 G2/clone #2 in A2
T1 sequence (O14791 with tags, fused parts or gaps DEL388-389): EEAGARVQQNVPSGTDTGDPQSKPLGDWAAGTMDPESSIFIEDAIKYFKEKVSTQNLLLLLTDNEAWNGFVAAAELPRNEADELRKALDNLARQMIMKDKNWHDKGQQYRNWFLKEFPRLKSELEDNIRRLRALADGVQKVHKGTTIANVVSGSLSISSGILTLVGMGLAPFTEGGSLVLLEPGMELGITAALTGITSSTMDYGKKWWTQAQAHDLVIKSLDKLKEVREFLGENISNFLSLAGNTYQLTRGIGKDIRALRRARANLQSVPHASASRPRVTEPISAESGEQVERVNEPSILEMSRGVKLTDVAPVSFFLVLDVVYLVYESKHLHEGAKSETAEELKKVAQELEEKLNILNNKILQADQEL
Put plainly: Rescue of HEK293 cell death caused by overexpression of APOL1 (CellTiter-Glo luminescence), HEK293/T-REx APOL1 G2/clone #2. Type of experiment: cell-based. Particulars: reversal of cell death caused by overexpression of APOL1; geometric mean of at least 2 assay runs, † = single assay run (technical duplicate). The method, boiled down: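 HEK293/T-REx APOL1 G2 clone #2 cells, 5,000/well, induced with 6 ng/mL doxycycline and exposed to compound (8-point, 3-fold dilutions, 0.5% DMSO) for 17 h at 37 °C. Viability by CellTiter-Glo luminescence; EC50 for reversal of APOL1-induced death from a four-parameter logistic fit, geometric mean of ≥2 runs.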
For orientation: In ATP-based viability assays light output follows the ATP content of the culture.

The target of experiment [2] is T1, APOL1 G2. Kind of experiment: APOL1 calcium transport inhibition assay (GCaMP6f calcium influx, FLIPR) in HEK T-REx/GCaMP6f/APOL1 G2 K6.3 cells. Particulars: inhibition of APOL1-mediated calcium influx; geometric mean of at least 2 assay runs, † = single assay run (technical duplicate). Type of experiment: cell-based. The method, boiled down: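 HEK293 cells stably expressing GCaMP6f, APOL1 G2 induced 6 h with doxycycline (20 ng/mL added), then washed into Ca2+-free Tyrode's buffer pH 7.4. Compounds (8-point dose response) preincubated 10 min at room temperature, then Ca2+ injected to 5 mM final and influx read on FLIPR. AC50 reported as geometric mean of runs.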

Take `CN(c1ccc(OC[C@@H](O)CNCCc2cc(Cl)ccc2Cl)cc1)S(C)(=O)=O` [Compound 90, (S)-N-(4-(3-((2,5-dichlorophenethyl)amino)-2-hydroxypropoxy)phe-nyl)-N-methylmethanesulfon-amide]: the EC50 at APOL1 G2 [1] was 1460 nM. For the same compound, the AC50 at APOL1 G2 [2] came out at 515 nM.
Consider `C[C@@H]1CN(CC(O)c2cc(Cl)cc(C#N)c2)C[C@H]1COc1ccc(S(C)(=O)=O)cc1` (stereo partly drawn) [Compound 120], for which the EC50 at APOL1 G2 [1] amounted to 195 nM. For the same compound, on APOL1 G2 [2], the AC50 is 461 nM.
The like results for `CS(=O)(=O)c1ccc(OC[C@@H]2CN(CCc3cc(Cl)cc(C#N)c3)CCN2)cc1` [Compound 189, 3-chloro-5-{2-[(3S)-3-[(4-methanesulfonylphenoxy)methyl]piperazin-1-yl]ethyl}benzonitrile] were, in that order, 922 nM and 634 nM.
The like results for `CS(=O)(=O)c1ccc(OCC2(O)CCCN(CCc3cccc(Cl)c3)C2)cc1` (single isomer, unassigned) [Compound 5, (R) or (S)-1-(3-chlorophenethyl)-3-((4-(methylsulfonyl)phenoxy)methyl) piperidin-3-ol] were, in that order, 5370 nM and 10100 nM.
In the case of `CS(=O)(=O)c1ccc(OCC2CN(CCc3cccc(Cl)c3)CCC2O)cc1` (racemic) [Compound 28, rac-cis or trans-1-(3-chlorophenethyl)-3-((4-(methylsulfonyl)phenoxy)methyl)piperidin-4-ol], the EC50 at APOL1 G2 [1] turned out to be 2340 nM. In addition, the half-maximal activity concentration (AC50) at APOL1 G2 [2] amounted to 2000 nM.
Consider `CN(c1ccc(OCC(C)(O)CNCCc2cccc(Cl)c2)cc1)S(C)(=O)=O` (single isomer, unassigned) [Compound 104, (S) or (R)-N-(4-(3-((3-chlorophenethyl)a-mino)-2-hydroxy-2-methylpropoxy)phe-nyl)-N-methylmethanesulfon-amide], for which the EC50 on APOL1 G2 [1] turned out to be 1860 nM. Besides, on APOL1 G2 [2], the AC50 is less than 382 nM.
The like results for `C[C@@H]1CN(CCc2cccc(S(F)(F)(F)(F)F)c2)C[C@H]1COc1ccc(S(C)(=O)=O)cc1` [Compound 163, (3S,4S)-3-[(4-methanesulfonylphenoxy)methyl]-4-methyl-1-{2-[3-(pentafluoro-λ^6-sulfanyl)phenyl]ethyl}pyrrolidine] were, in that order, more than 385 nM and 1150 nM.
The like results for `CN(c1ccc(OCC2CCCN(CCc3cccc(Cl)c3)C2)cc1)S(C)(=O)=O` (single isomer, unassigned) [Compound 8, (S) or (R)—N-(4-((1-(3-chlorophenethyl)piperidin-3-yl)methoxy)phenyl)-N-methylmethanesulfonamide] were, in that order, 132 nM and 266 nM.
The like results for `C[C@@H]1CN(CC(O)c2cccc(C#N)c2)C[C@H]1COc1ccc(S(C)(=O)=O)cc1` (stereo partly drawn) [Compound 126] were, in that order, 560 nM and 704 nM.
In the case of `C[C@@H]1CN(CCc2cc(Cl)cc(C#N)c2)C[C@H]1COc1ccc(S(=O)(=O)C(C)(C)CO)cc1` [Compound 166, 3-chloro-5-{2-[(3S,4S)-3-{[4-(1-hydroxy-2-methylpropane-2-sulfonyl)phenoxy]methyl}-4-methylpyrrolidin-1-yl]ethyl}benzonitrile], the EC50 at APOL1 G2 [1] came out at 17.9 nM. Further, on APOL1 G2 [2], the AC50 stood at 256 nM.
The like results for `C[C@@H]1CN(CCc2cccc(Cl)c2)C[C@H]1COc1ccc(N(C)S(C)(=O)=O)cc1` (single isomer, unassigned) [Compound 46, N-(4-(((3S,4S) or (3R,4R)-1-(3-chlorophenethyl)-4-methylpyrrolidin-3-yl)methoxy)phenyl)-N-methylmethanesulfonamide] were, in that order, 21 nM and 90.2 nM.
The like results for `C[C@@H]1CN(CC(O)c2cccc(Cl)c2)C[C@H]1COc1ccc(S(C)(=O)=O)cc1` (single isomer, unassigned) [Compound 124, (1R or 1S)-1-(3-chlorophenyl)-2-[(3S,4S)-3-[(4-methanesulfonylphenoxy)methyl]-4-methylpyrrolidin-1-yl]ethan-1-ol] were, in that order, 242 nM and 148 nM.
The like results for `CS(=O)(=O)c1ccc(OC[C@@H]2CN(CCc3cccc(Cl)c3)CCN2)cc1` [Compound 13, (S)-1-(3-chlorophenethyl)-3-((4-(methylsulfonyl)phenoxy)methyl)piperazine] were, in that order, 445 nM and 143 nM.
For `COCCS(=O)(=O)c1ccc(OC[C@H]2CN(CCc3cccc(Cl)c3)C[C@@H]2C)cc1` (single isomer, unassigned) [Compound 110, (3R,4R or 3S,4S)-1-[2-(3-chlorophenyl)ethyl]-3-{[4-(2-methoxyethane-sulfonyl)phenoxy]methyl}-4-methylpyrrolidine], at APOL1 G2 [1], the EC50 worked out at 135 nM. The AC50 at APOL1 G2 [2] stood at 91.4 nM.
The like results for `CN(c1ccc(OCC2CN(CCc3cccc(Cl)c3)CCCO2)cc1)S(C)(=O)=O` (single isomer, unassigned) [Compound 12, (S) or (R)-N-(4-((4-(3-chlorophenethyl)-1,4-oxazepan-2-yl)methoxy)phenyl)-N-methylmethane-sulfonamide] were, in that order, 3000 nM and 2390 nM.
On to `C[C@@H]1CN(CCc2cc(F)cc(C#N)c2)C[C@H]1COc1ccc(S(C)(=O)=O)cc1` [Compound 195, 3-fluoro-5-{2-[(3S,4S)-3-[(4-methanesulfonylphenoxy)methyl]-4-methylpyrrolidin-1-yl]ethyl}benzonitrile], for which the EC50 at APOL1 G2 [1] worked out at 226 nM. The AC50 on APOL1 G2 [2] came out at 236 nM.
As to `CS(=O)(=O)c1ccc(OC[C@H]2CCCN(CC(O)c3cccc(Cl)c3)C2)cc1` (single isomer, unassigned) [Compound 18, (R) or (S)-1-(3-chlorophenyl)-2-((S)-3-((4-(methylsulfonyl)phenoxy)methyl)piperidin-1-yl)ethan-1-ol], the EC50 on APOL1 G2 [1] stood at 6320 nM. Moreover, the AC50 at APOL1 G2 [2] is 5730 nM.
The like results for `CN(c1ccc(OC[C@H](O)CN2CCC(c3cccc(Cl)c3)C2)cc1)S(C)(=O)=O` (single isomer, unassigned) [Compound 79, N-(4-((R)-3-((R) or (S)-3-(3-chlorophenyl)pyrro-lidin-1-yl)-2-hydroxypropoxy)phe-nyl)-N-methylmethanesulfon-amide] were, in that order, more than 13700 nM and 1290 nM.
Regarding `C[C@@H]1CN(CC(O)c2cccc(Cl)c2)C[C@H]1COc1ccc(S(C)(=O)=O)cc1` (stereo partly drawn) [Compound 123, 1-(3-chlorophenyl)-2-((3S,4S)-3-methyl-4-((4-(methylsulfonyl)phenoxy)methyl)pyrrolidin-1-yl)ethan-1-ol], the EC50 on APOL1 G2 [1] was 300 nM. The AC50 at APOL1 G2 [2] amounted to 376 nM.
The like results for `CS(=O)(=O)c1ccc(OC[C@H]2CCCN(CC(O)c3cccc(Cl)c3)C2)cc1` (single isomer, unassigned) [Compound 19, (S) or (R)-1-(3-chlorophenyl)-2-((S)-3-((4-(methylsulfonyl)phenoxy)methyl)piperidin-1-yl)ethan-1-ol] were, in that order, 374 nM and 480 nM.
Turning to `C[C@@H]1CN(CCc2cccc(C#N)c2)C[C@H]1COc1ccc(S(C)(=O)=O)cc1` [Compound 149, 3-{2-[(3S,4S)-3-[(4-methane-sulfonylphen-oxy)methyl]-4-methylpyrroli-din-1-yl]ethyl}-benzonitrile], on APOL1 G2 [1], the EC50 came to 272 nM. The AC50 on APOL1 G2 [2] amounted to 99.8 nM.
